Row | SMILES | melting point
1 | CN(C)c1nc(N(C)Cc2ccccc2O)nc(N(C)Cc2ccccc2O)n1 | 156 to 157 °C
2 | CCOC(=O)C(C)ON=C(C)C (stereo not drawn) | 59 to 61 °C
3 | COc1c(-c2ccc(C=NNS(C)(=O)=O)cc2)cc(N2CCC(=O)NC2=O)cc1C(C)(C)C | 209 to 211 °C
4 | Cc1c(N2CC(O)C2)c(F)cc2c(=O)c(C(=O)O)cn(-c3cc(N)c(F)cc3F)c12 | 206 to 208 °C
5 | CCCCCCC(C)(C)c1ccc(C2=CCCN(CC3CC3)C2)c(O)c1 | 118 °C
6 | COC1C(NC(=O)C(F)(F)F)CC(O)OC1C (stereo not drawn) | 185 °C
7 | CC(=Cc1cn(C)c2ccc3c(c12)CCCO3)[N+](=O)[O-] | 200 to 202 °C
8 | Cc1cc2c(c(C)c1O)OC[C@@H](N1CCC(O)(c3ccc(F)cc3)CC1)[C@H]2O (relative stereo) | 226 to 227 °C
9 | CN1CCC(N2C(=O)CN=C(c3ccccc3F)c3cc(Cl)ccc32)CC1 | 145 to 146 °C
10 | Nc1nc(NCCOc2ccc(O)cc2)nc2nc(-c3ccco3)nn12 | 266 to 268 °C
11 | O=C(O)CCCCCCCn1ccnc1 | 91 to 94 °C
12 | Oc1cc(Br)ccc1Br | 71 to 74 °C
13 | CCCCN1C(=O)CSC(=NOC(=O)NC)C1C (stereo not drawn) | 118 to 120 °C
14 | Cc1nnc(NCCNC2CN3CCC2CC3)c2cc3ccccn3c12 (stereo not drawn) | 205 to 208 °C
15 | CC(C)(O)Cn1c(CO)nc2c(N)nc3cc(OCc4cscn4)ccc3c21 | 260 to 262 °C
16 | CCC(CC)n1nc(C)c2c(NN3CCc4cc(Br)cc(Br)c43)nc(C)nc21 | 190 to 191 °C
17 | Cc1cnc2c(c1)CCCC2NC(N)=S (stereo not drawn) | 114 °C
18 | CS(=O)(=O)c1ccc(-c2ccc3cnc(Nc4ccc(C5CCN(CC(N)=O)CC5)cc4)nn23)cc1 | 310 °C
19 | CCOC(=O)C=Cc1cnc(N(Cc2ccc(OC)c(OC)c2)C(=O)OC(C)(C)C)n2nc(-c3ccco3)nc12 | 124 to 129 °C

Row | SMILES | melting point
20 | COc1nc(Cl)cc2nc(S(=O)(=O)Nc3nn(C)cc3Br)nn12 | 230 to 232 °C
21 | COc1ccc(CC(=O)NC(NC(=NC#N)Nc2cc(C)ccc2C)C(C)(C)C)cc1OC (stereo not drawn) | 93 to 94 °C
22 | CCCC(=O)c1nc(CCC)[nH]c1C | 94 to 95 °C
23 | O=C(O)CCc1cnoc1-c1cc(Cl)cc(Cl)c1 | 143 to 144 °C
24 | COc1ccc(Sc2ccncc2)c(N)c1 | 93 to 94 °C
25 | N#Cc1ccc(C=C2CCNC2=O)cc1 | 260 °C
26 | CCCCOc1ccc(CCNc2ncnc(CC)c2C(=O)O)cc1 | 208 to 211 °C
27 | CCCC1CC(O)c2cc(S(N)(=O)=O)sc2S1 (stereo not drawn) | 156 to 157 °C
28 | Cn1ncc2c(=O)n3c(nc21)SCCCC3 | 157 °C
29 | CC(C)(Oc1ccc(NC(=O)Nc2ccc(Cl)c(Cl)c2)cc1)C(=O)O | 183 to 184 °C
30 | O=c1oc2ccccc2cc1CCN1CCC(Nc2nc3ccccc3n2Cc2cccs2)CC1 | 165 °C
31 | CC1(c2cc(Cl)nnc2Cl)CC1(Cl)Cl (stereo not drawn) | 78 to 79 °C
32 | O=C1CS(=O)(=O)C(C(=O)Nc2ccc(Cl)cc2)Cc2cc3c(cc21)OCCO3 (stereo not drawn) | 273 to 274 °C
33 | Cn1nnnc1Cc1ccc(NC(=O)/C=C/c2cnn(C)c2-c2ccc(F)cc2)cc1 | 243 to 244 °C
34 | COc1cc2cc(C(N)=O)c(N)nc2cc1OC | 275 °C
35 | O=C(CCCCCCCCC(=O)N(CCO)CCO)N(CCO)CCO | 87 to 98 °C
36 | Cc1c(NC(=O)c2cc3c(s2)C2CCC3C2)cccc1-c1cn(C)c(=O)c(Nc2ccc(C3C(=O)N(C)CCN3C)cc2)n1 (stereo not drawn) | 178 to 179 °C
37 | Cc1ccc(N2CCOCC2)c(N=C=S)c1 | 91 to 92 °C
38 | COc1ccc(C(C#N)=NO)cc1 | 141 °C

Row | SMILES | melting point
39 | Clc1ccc(-c2cc(C3CCN(Cc4ccc5ccccc5c4)CC3)n[nH]2)cc1 | 180 to 181 °C
40 | c1cncc(-n2cnnn2)c1 | 74 to 76 °C
41 | O=C(CC1CCCC1)c1c(-c2ccc3cc(O)ccc3c2)oc2ccccc12 | 189 to 190 °C
42 | Cc1nc(N2CCN(CC3CC3)C2=O)sc1C(N)=O | 198 to 200 °C
43 | COCc1ccn2nc(S(=O)(=O)Cl)nc2n1 | 125 °C
44 | CCc1ccc2nc(C)[nH]c2c1N1CC(CI)OC1=O (stereo not drawn) | 143 to 144 °C
45 | OC1(c2ccoc2)CN2CCC1CC2 (stereo not drawn) | 130 to 133 °C
46 | CCc1ccc(NCc2cc(OC)c(OC)c(OC)c2)cc1 | 64 to 66 °C
47 | COc1c(N2CCNCC2)c(F)c(N)c2c(=O)c(C(=O)O)cn(C3CC3)c12 | 271 to 273 °C
48 | O=S1(=O)NCN(C2CC2)c2c1ccc(F)c2Cl | 141 to 143 °C
49 | CC(C)c1c(Sc2ccc(O)cc2)n(C)c2ccccc12 | 89 to 90 °C
50 | COc1ccc(-c2ccc(O)c(C34CC5CC(CC(C5)C3)C4)c2)cc1C=C1SC(N2CCOCC2)=NC1=O | 355 to 360 °C
51 | COC(=O)c1ccc(NC(=O)[C@H](Cc2ccc(-c3ccccc3)cc2)NCP(=O)(OC)OC)cc1 | 128 to 129 °C
52 | O=C(O)C(Cc1ccccc1)Oc1ccc(-c2ccc(-c3c(Cc4ccccc4)oc4cccnc34)cc2)cc1 (stereo not drawn) | 85 to 88 °C
53 | C#CCOc1ccc2nc(N)c3nc4n(c3c2c1)C(C)COC4 (stereo not drawn) | 184 to 186 °C
54 | COc1c(Cl)ccc(-c2cc(N)c(Cl)c(C(=O)NO)n2)c1F | 166 to 169 °C
55 | CCCCCC(=O)Nc1cccc2c1C1(COc3cc4c(cc31)OCCO4)C(=O)N2C (stereo not drawn) | 151 to 153 °C
56 | Cn1ccnc1Sc1ccc(Nc2c(C#N)cnc3cc(-c4ccc(CN5CCNCC5)cc4)ccc23)cc1Cl | 140 to 142 °C
57 | CCOC(=O)/C=C/c1ccc(/C=C(\C)c2ccc3c(c2)C(C)(C)CCC3(C)C)cc1 | 126 to 127 °C

Results, then the molecule that gave them:

Row | melting point | SMILES
58 | 169 to 171 °C | COC(=O)Nc1cn2cccc(Sc3ccccc3)c2n1
59 | 83 to 85 °C | c1ccc2c(c1)Oc1ccccc1C2NCc1ccncc1
60 | 140 to 142 °C | CSC1C(=O)Nc2c(Oc3ccccn3)cccc21 (stereo not drawn)
61 | 170 °C | O=C(O)/C=C/c1ccc(N2CCCC2)nc1
62 | 126 to 128 °C | CN1C(=S)C(CCC(=O)O)c2ccccc21 (stereo not drawn)
63 | 91 to 93 °C | O=C(OCc1ccc(CO)cc1COC(=O)c1ccccc1)c1ccccc1
64 | 188 to 190 °C | Cn1c(=O)cc(CBr)c2ccccc21
65 | 213 to 215 °C | CC(=O)NCCCc1nc2cnc3ccc(C)cc3c2n1C
66 | 128 to 130 °C | Cc1oc(-c2ccc(C(F)(F)F)cc2)nc1COc1ccc(/C=C/Cn2oc(=O)[nH]c2=O)cc1
67 | 73 to 74 °C | Nc1ccc(CCn2cccn2)cc1
68 | 206 to 207 °C | Oc1cccc(Oc2nnc(Cc3ccncc3)c3ccccc23)c1
69 | 120 to 122 °C | COC(=O)c1cc(=O)c2ccccc2o1
70 | 148 to 150 °C | COC(=O)CNC(=O)[C@H](NC(=O)OCC1c2ccccc2-c2ccccc21)C(C)C
71 | 115 to 120 °C | CCC#COc1ccc(S(=O)(=O)NC(CSc2ccccn2)C(=O)NO)cc1 (stereo not drawn)
72 | > 220 °C | O=S1(=O)N=C(NOCc2ccccc2)Nc2ccc(Cl)cc21
73 | 94 to 95 °C | Cc1ccc2[nH]c(CO)cc2c1
74 | 93 to 94 °C | CCOC(=O)c1onc(OCC)c1CN1C(=O)c2ccccc2C1=O
75 | 160 to 161 °C | O=C(NC(=O)c1ccccc1)NC1CCN(CC(=O)C2COc3ccccc3O2)CC1 (stereo not drawn)
76 | 250 to 252 °C | O=C1CC[C@@H](C(=O)N[C@@H](Cc2c[nH]cn2)C(=O)N[C@@H](Cc2c[nH]c3ccccc23)C(=O)OCc2ccccc2)N1
77 | 214 to 215 °C | O=C1c2ccccc2C(=O)N1CCCSC1N=CC=CN1NC(=S)NCC(F)(F)F (stereo not drawn)
78 | 195 to 197 °C | CCOC(=O)c1[nH]c2cc(Cl)cc(Cl)c2c1NCCC(=O)c1ccccc1
79 | 106 to 109 °C | COc1cc(Oc2cccc(C(F)(F)F)c2)nc(C(=O)NC2CC2)c1
80 | 115 to 116 °C | O=C(O)C(O)N1C(=O)CCN1c1cccc(F)c1 (stereo not drawn)

Row | melting point | SMILES
81 | 172 to 173 °C | CC(C)(C)OC(=O)n1cccc1-c1ccc2c(c1)C(C)(C)OC(=O)N2
82 | 74 to 76 °C | Fc1ccc(Cl)c2ncccc12
83 | 33 to 34 °C | CON=C(c1ccc2c(c1)sc(=O)n2CCOc1ccc(CC(OCC(F)(F)F)C(=O)O)cc1)C1CC1 (stereo not drawn)
84 | 206 to 211 °C | FC(F)(F)c1ccc(-c2cc(Oc3cncc4ccccc34)ncn2)cc1
85 | 142 to 145 °C | O=C(C1=NN(CC(F)(F)F)C(=O)CN1)c1ccccc1
86 | 178 to 179 °C | Cc1ccc(Nc2ccccn2)c(C)c1[N+](=O)[O-]
87 | 192 to 195 °C | C[C@]1(CN2CCN(Nc3ccc(C(F)(F)F)cc3)CC2)Cn2cc([N+](=O)[O-])nc2O1
88 | 296 to 299 °C | CCN1C(=O)C(C)(C)C(=O)N(C)c2cc(C(=O)O)ccc21
89 | 132 °C | O=C(/C=C/[C@@H]1[C@H]2CC(=O)O[C@H]2C[C@H]1OC(=O)c1ccccc1)COc1ccccc1
90 | 148 to 149 °C | O=C(Nc1ccncc1)C1c2ccccc2CCc2ccccc21
91 | 175 °C | FC(F)(F)c1ccc(-c2cc(C(F)(F)F)n3ncc(C#Cc4cncnc4)c3n2)cc1
92 | 244 °C | COc1ccc(C2=NN(C3CCN(S(=O)(=O)c4cccc(C(=O)O)c4)CC3)C(=O)C2(C)C)cc1OC
93 | 140 to 141 °C | CCOC(=O)n1cc(C=O)c(-c2ccc([N+](=O)[O-])o2)n1
94 | 242 to 244 °C | Cc1ccc(N2C(=O)NC(=O)C23CCN(C(=O)c2ccccc2)CC3)cc1
95 | 82.1 to 83.6 °C | O=C1c2ccccc2C(=O)N1Cc1ccc(OC(F)(F)F)cc1
96 | 184 to 186 °C | O=C(Nc1ccccc1)N1CC2CCC(C1)O2
97 | > 300 °C | CCNC(=O)c1ccc2cc(-c3csc(N(C)S(=O)(=O)c4ccccc4)n3)c(=O)[nH]c2c1
98 | 260 to 262 °C | CCCC=NNc1cc2c(nn1)CCN(C(=O)c1ccc(-c3ccccc3)cc1)C2
99 | 130 to 132 °C | CCN1C(=O)CON(C(C)=O)C1c1ccccc1 (stereo not drawn)
100 | 142 to 143 °C | O=C(O)CN1CC(c2ccc(Cl)cc2)CC1=O (stereo not drawn)
101 | 169 to 171 °C | CCOC(=O)Cc1csc2nc(C(=O)NCc3cccc(OC)c3)[nH]c(=O)c12
102 | > 280 °C | Nc1nc(C#Cc2ccccc2)nc2nc(-c3ccco3)nn12
103 | 128 to 130 °C | O=C(NCCCn1cncn1)c1ccc(Cl)c(Cl)c1

— a melting point compilation (Tetko et al.; mined from patent text by program, amines drawn as free bases though some values may be those of a salt)
